Reference: patent US10647738B2, “Xylene-based amphiphilic compound and use thereof” (Industry-University Cooperation Foundation Hanyang …, priority 2016, dated 2020)
Where “and” joins values, the source holds several entries; their conditions need not be identical. Equal entries are not always repeated. Entries after “also recorded” stand apart in the source; their conditions may differ.

Tests used:
[1] = Critical micelle concentration by fluorescence staining with diphenylhexatriene (DPH); type: physicochemical; conditions: aqueous solution
Experimental: While a method for measuring CMC is not particularly limited, a method widely known in the art may be used, and the measurement may be performed by, for example, a fluorescence staining method using diphenylhexatriene (DPH).
(§1) Specifically, the critical micellar concentration (CMC) was measured using fluorescence staining and diphenylhexatriene (DPH), and the hydrodynamic radii (Rh) of the micelles formed by agents were measured through a dynamic light scattering (DLS) experiment. The measured results are shown in Tables 1 and 2, compared with a conventional amphiphilic molecule (detergent), DDM.

boron transporter (Bor1) = target: T1, boron transporter (Bor1) (Arabidopsis thaliana, UniProt Q8VYR7); assay: Bor1 structural stability in detergent solution, CPM assay; conditions: CMC+0.04 wt % and CMC+0.2 wt %; two hours at 40° C.
T1 construct: GFP-His (TEV-cleavable) (C, cleaved yes); made in house; host or cells: S. cerevisiae
T1 sequence (Q8VYR7 whole entry, species assumed): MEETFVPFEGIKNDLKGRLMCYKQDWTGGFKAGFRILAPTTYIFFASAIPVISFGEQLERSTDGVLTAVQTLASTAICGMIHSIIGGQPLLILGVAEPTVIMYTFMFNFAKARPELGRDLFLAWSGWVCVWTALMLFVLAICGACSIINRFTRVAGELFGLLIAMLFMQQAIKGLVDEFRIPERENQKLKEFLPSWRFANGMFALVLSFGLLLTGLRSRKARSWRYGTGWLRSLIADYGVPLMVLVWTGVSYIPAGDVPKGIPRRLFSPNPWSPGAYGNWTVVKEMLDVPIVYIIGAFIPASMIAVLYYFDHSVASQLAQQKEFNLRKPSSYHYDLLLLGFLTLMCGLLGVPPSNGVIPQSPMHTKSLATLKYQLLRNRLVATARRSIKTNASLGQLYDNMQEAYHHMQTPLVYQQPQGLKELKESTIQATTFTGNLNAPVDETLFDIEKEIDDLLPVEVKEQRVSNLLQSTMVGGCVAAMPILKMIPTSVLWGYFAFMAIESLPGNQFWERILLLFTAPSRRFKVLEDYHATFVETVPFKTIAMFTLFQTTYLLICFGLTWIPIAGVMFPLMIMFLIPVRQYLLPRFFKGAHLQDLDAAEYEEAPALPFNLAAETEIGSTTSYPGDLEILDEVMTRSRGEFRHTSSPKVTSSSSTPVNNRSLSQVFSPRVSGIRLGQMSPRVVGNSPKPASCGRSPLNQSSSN
Experimental: An experiment for measuring the structural stability of a boron transporter (Bor1) in an aqueous solution due to P-XMAs was performed. The Bor1 structural stability was measured using a CPM assay, and concentrations of P-XMAs and DDM were estimated by measuring relative amounts of folded proteins at CMC+0.04 wt % (a) and CMC+0.2 wt % (b) to analyze Bor1 protein stability according to the concentration of an amphiphilic molecule.
Specifically, Bor1 was expressed as a fusion protein with a C-terminal GFP-His tag in S. cerevisiae. All steps were carried out at 4° C. A Bor1-containing membrane was resuspended with PBS (pH 7.4), 100 mM NaCl, and 10% glycerol and solubilized in 1% DDM for 1 hour with gentle stirring, followed by ultracentrifugation at 200,000 g for 45 minutes. The supernatant was adjusted with 10 mM imidazole, and applied to two 5 ml Ni^2+-NTA columns pre-equilibrated with Buffer A (PBS (pH 7.4), 100 mM NaCl, 10% glycerol, 0.03% DDM) supplemented with 10 mM imidazole. The column was washed with 5 CV of Buffer A supplemented with 30 mM imidazole, and washed with 5 CV of Buffer A supplemented with 50 mM imidazole, followed by elution in Buffer A supplemented with 500 mM imidazole. […] A clear plate cover was added, and the fluorescence of each well was monitored at 40° C. for 120 minutes.

[2] = target: T2, melibiose permease (MelB) (Salmonella typhimurium, UniProt P30878); assay: MelB extraction from membranes and thermostability, SDS-PAGE and western blotting; conditions: for MelB protein extraction efficiency / MelB protein extraction / maintained solubilization / MelB protein extraction: 1.5 wt % detergent, 90 minutes; for MelB protein extraction / maintained solubilization: 55° C.; for MelB protein extraction: 65° C.
T2 construct: made in house; host or cells: Salmonella typhimurium DW2 cells (ΔmelB and ΔlacZY) (so in the source); membrane preparation
T2 sequence (P30878 whole entry): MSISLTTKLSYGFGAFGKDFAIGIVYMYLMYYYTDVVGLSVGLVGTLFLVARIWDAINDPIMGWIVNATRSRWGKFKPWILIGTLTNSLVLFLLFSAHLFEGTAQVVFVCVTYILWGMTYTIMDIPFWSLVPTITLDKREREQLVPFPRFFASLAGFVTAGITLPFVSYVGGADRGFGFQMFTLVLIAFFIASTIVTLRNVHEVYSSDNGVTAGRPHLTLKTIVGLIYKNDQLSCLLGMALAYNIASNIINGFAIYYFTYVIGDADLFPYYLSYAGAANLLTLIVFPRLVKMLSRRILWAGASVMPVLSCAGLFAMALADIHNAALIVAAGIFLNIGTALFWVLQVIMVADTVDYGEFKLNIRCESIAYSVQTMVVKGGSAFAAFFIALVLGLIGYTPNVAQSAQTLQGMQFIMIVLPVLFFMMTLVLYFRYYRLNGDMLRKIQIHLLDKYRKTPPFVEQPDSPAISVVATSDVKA
Experimental: An experiment for measuring the structural stability of the Salmonella typhimurium melibiose permease (MelB) protein due to XMAs was performed. The MelB protein was extracted on a membrane using XMAs and DDM, and the amount and structure of the extracted protein were analyzed by SDS-PAGE and western blotting. A concentration of the used compound was 1.5 wt %, and the protein was extracted at a different temperature (0, 45, 55, or 65° C.) to evaluate two kinds of performance such as protein extraction efficiency and stabilization ability of the compound at the same time. Membrane samples that were not treated with XMAs or DDM were used as controls.
Specifically, MelBSt stability due to DDM and XMAs was evaluated according to the method described in the paper (P. S. Chae, et al., Nat. Methods 2010, 7, 1003-1008) written by the inventor in 2010. The protein (MelBSt) was produced using plasmid pK95ΔAHB/WT MelBSt/CH10 encoding wild-type MelB with a 10-His tag at the C-terminus and Salmonella typhimurium DW2 cells (ΔmelB and ΔlacZY). Cell growth and membrane preparation were carried out according to the method described in the paper (Nat. Commun. 2014, 5, 3009) written by A. S. Ethayathulla et al. A protein assay was performed using a Micro BCA kit (Thermo Scientific, Rockford, Ill.). To measure solubilization/stability, MelBSt-containing membrane samples (final protein concentration of 10 mg/mL) were incubated with a solubilization buffer (20 mM sodium phosphate, pH 7.5, 200 mM NaCl, 10% glycerol, 20 mM melibiose) and 1.5% (w/v) DDM, P-XMAs (P-XMA-C8, P-XMA-C9, P-XMA-C10, P-XMA-C11 and P-XMA-C12), M-XMAs (M-XMA-C11, M-XMA-C12, M-XMA-C14, M-XMA-C16 and M-XMA-C18) or O-XMAs (O-XMA-C11, O-XMA-C12, O-XMA-C14, O-XMA-C16 and O-XMA-C18) at four different temperatures (0, 45, 55 and 65° C.) for 90 minutes. Following ultracentrifugation at 355,590 g in a Beckman Optima™ MAX ultracentrifuge using a TLA-100 rotor for 45 minutes at 4° C., 20 μg proteins were separated by SDS-16% PAGE, and then immunoblotted with a Penta-His-HRP antibody (Qiagen, Germantown, Md.). MelBSt was detected using a SuperSignal West Pico chemiluminescent substrate by an ImageQuant LAS 4000 Biomolecular Imager (GE Health Care Life Sciences).

[3] = Hydrodynamic radius and size distribution of micelles by dynamic light scattering (DLS); type: physicochemical; conditions: for Rh (nm), hydrodynamic radius of micelles: 1.0 wt % stated for M-/O-XMAs (FIG. 37); for size distribution of micelles (number of micelle sets): FIGS. 36 and 37
Experimental: A method for measuring the radius of a micelle is not particularly limited, but a method well known in the art may be used, and for example, the measurement may be performed using a dynamic light scattering (DLS) experiment.
as §1

[4] = target: T3, human β2 adrenergic receptor (β2AR) (Homo sapiens, UniProt P07550); assay: mBBr-β2AR fluorescence spectrum after dilution to CMC or less; type: biochemical; conditions: diluted with NH buffer, 30 minutes
T3 construct: made in house
T3 sequence (P07550 whole entry): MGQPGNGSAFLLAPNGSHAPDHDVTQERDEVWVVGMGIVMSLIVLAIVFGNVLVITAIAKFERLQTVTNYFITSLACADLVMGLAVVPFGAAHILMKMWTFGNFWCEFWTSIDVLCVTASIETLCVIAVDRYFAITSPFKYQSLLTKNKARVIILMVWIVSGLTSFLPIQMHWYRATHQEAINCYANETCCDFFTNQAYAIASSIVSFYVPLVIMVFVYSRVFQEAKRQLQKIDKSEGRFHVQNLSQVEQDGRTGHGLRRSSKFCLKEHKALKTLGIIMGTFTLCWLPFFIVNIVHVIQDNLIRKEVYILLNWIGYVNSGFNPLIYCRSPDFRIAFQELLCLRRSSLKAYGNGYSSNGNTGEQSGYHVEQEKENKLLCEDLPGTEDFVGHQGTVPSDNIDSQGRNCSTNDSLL
Experimental: An experiment for comparing changes in protein structures of XMAs and DDM at CMC or less of an amphiphilic molecule was carried out.
Specifically, 0.5 μl of an unliganded mBB-labeled receptor solubilized in 20×CMC P-XMA-C11 or P-XMA-C12 at 50 μM was diluted with 500 μl of a NH buffer (20 mM HEPES pH 7.5, 100 mM NaCl). The protein was incubated for 30 minutes, and the mBBr spectrum was measured. The receptor solubilized in 0.1% DDM was diluted with a NH buffer, and used as a control.

[5] = target: T3, human β2 adrenergic receptor (β2AR); assay: [3H]-dihydroalprenolol radioligand binding of β2AR purified in detergent; conditions: 10 nM [3H]-DHA, 30 minutes, room temperature
Experimental: An activation degree of a receptor (mBBr-β2AR) purified by DDM or XMAs was measured by [^3H]-dihydroalprenolol ([^3H]-DHA) binding.
Specifically, a radioligand binding assay was performed by the following method. β2AR was purified in the presence of 0.1% DDM. After β2AR was reloaded into an M1 Flag column in the presence of 2 mM CaCl2, a DDM (0.1%)-XMA (0.2%) buffer mixture was prepared in a ratio of 50:50, 20:80, 10:90, 5:95 or 0:100. The receptor was eluted in 20×CMC XMA with 5 mM EDTA and 0.2 mg/ml of a free Flag peptide. 0.1 pmol purified β2AR solubilized in DDM, P-XMA-C11, P-XMA-C12, M-XMAs or O-XMAs was incubated with 10 nM of radioactive DHA [^3H]-dihydroalprenolol (DHA) for 30 minutes at room temperature. The mixture was loaded into a G-50 column, and a flow-through was collected with a binding buffer (20 mM HEPES pH 7.5, supplemented with 0.5 mg/ml BSA, 100 mM NaCl), and further filled with 15 ml of a scintillation fluid. Receptor-binding [^3H]DHA was measured with a scintillation counter (Beckman). Non-specific binding of [^3H]-DHA was calculated by adding 1 μM of alprenolol (Sigma) in the same binding reaction. The binding degree of [^3H]-DHA was measured as a column graph.

## CCCCCCCCCCCCO[C@@H]1O[C@H](CO)[C@@H](O[C@H]2O[C@H](CO)[C@@H](O)[C@H](O)[C@H]2O)[C@H](O)[C@H]1O [DDM, n-dodecyl-β-D-maltopyranoside, reference compound]
[1]
  CMC: ~170 µM
  CMC (wt %): ~0.0087 wt %
Boron transporter (Bor1)
  Bor1 structural stability (relative amount of folded protein): most instable state
[2]; 0° C.
  MelB protein extraction efficiency: high protein extraction efficiency
[2]; 45° C.
  MelB protein extraction efficiency: high protein extraction efficiency
[2]
  MelB protein extraction / maintained solubilization: hardly observed; also recorded: failed to maintain the solubilization of MelB
  MelB protein extraction: did not extract the protein
[3]
  Rh (nm), hydrodynamic radius of micelles: 3.4 nm and 3.4 ± 0.02 nm
  size distribution of micelles (number of micelle sets): one set of micelles
[4]
  structural change of β2AR on dilution to CMC or less: clear structural change due to dilution

## CCCCCCCCCCCCC(CO[C@@H]1OC(CO)[C@@H](O[C@H]2OC(CO)[C@@H](O)C(O)C2O)C(O)C1O)(CO[C@@H]1OC(CO)[C@@H](O[C@H]2OC(CO)[C@@H](O)C(O)C2O)C(O)C1O)Cc1ccc(CC(CCCCCCCCCCCC)(CO[C@@H]2OC(CO)[C@@H](O[C@H]3OC(CO)[C@@H](O)C(O)C3O)C(O)C2O)CO[C@@H]2OC(CO)[C@@H](O[C@H]3OC(CO)[C@@H](O)C(O)C3O)C(O)C2O)cc1 (some centres unmarked) [P-XMA-C12]
[1]
  CMC: ~1 µM
  CMC (wt %): ~0.0002 wt %
[2]; 1.5 wt % detergent, 0, 45, 55 and 65° C.
  MelBSt stabilization ability compared with DDM: higher MelBSt stabilization ability than DDM
[2]; 45° C.
  MelB protein extraction efficiency: extraction efficiency at the same level as DDM
[2]
  MelB protein extraction / maintained solubilization: higher MelBSt extraction ability than DDM
  MelB protein extraction: extracted MelBSt
[5]
  [3H]-DHA binding degree of purified β2AR: radioactive-ligand binding degree similar to the receptor purified by DDM
[3]
  Rh (nm), hydrodynamic radius of micelles: 3.7 nm and 3.7 ± 0.01 nm
  size distribution of micelles (number of micelle sets): two sets of micelles having different radii
[4]
  structural change of β2AR on dilution to CMC or less: less structural change
